Laboratory results reported in ChEMBL document CHEMBL5038611, “Design, synthesis and bioevaluation of 6-aryl-1-(3,4,5-trimethoxyphenyl)-1H-benzo[d]imidazoles as tubulin polymerization inhibitors” (Eur J Med Chem, 2021).
Values belong to the molecule of their own block, whether it stands above or below them. Active and inactive are the calls of the source. The rule behind the calls is not given here.

Experiments:
MCF7 [1] = assay: Antiproliferative activity against human MCF7 cells assessed as reduction in cell viability incubated for 72 hrs by MTT assay; type: functional, cell-based; conditions: MCF7, 72 h
SGC-7901 = assay: Antiproliferative activity against human SGC-7901 cells assessed as reduction in cell viability incubated for 72 hrs by MTT assay; type: functional, cell-based; conditions: SGC-7901, 72 h
A549 = assay: Antiproliferative activity against human A549 cells assessed as reduction in cell viability incubated for 72 hrs by MTT assay; type: functional, cell-based; conditions: A549, 72 h
Tubulin (Homo sapiens) [2] = target: T1, Tubulin (Homo sapiens) (UniProt P68371+Q9H4B7+P0DPH7+P68366+Q13509+Q71U36+P04350+Q3ZCM7+P07437+P68363+Q9BQE3+Q6PEY2+Q13885+Q9BVA1+Q9BUF5); assay: Inhibition of microtubule polymerization in human MCF7 cells assessed as disorganisation of microtubule by measuring short and wrapped structure at 2 times IC50 incubated for 24 hrs by DAPI staining based immunofluorescence assay; type: cell-based
Sus scrofa = species: Sus scrofa; assay: Inhibition of porcine brain tubulin polymerization measured every 1 min for 90 mins by microplate based assay in the presence of GTP
MCF7 [3] = assay: Induction of cell cycle arrest in human MCF7 cells assessed as accumulation of cells at G2/M phase at 0.5 fold IC50 measured after 24 hrs by flow cytometry (reference value: 11 %); type: functional
MCF7 [4] = assay: Induction of cell cycle arrest in human MCF7 cells assessed as accumulation of cells at G2/M phase at 1 fold IC50 measured after 24 hrs by flow cytometry (reference value: 11 %); type: functional
MCF7 [5] = assay: Induction of cell cycle arrest in human MCF7 cells assessed as accumulation of cells at G2/M phase at 2 fold IC50 measured after 24 hrs by flow cytometry (reference value: 11 %); type: functional
MCF7 [6] = assay: Induction of apoptosis in human MCF7 cells assessed as viable cells at 1 fold IC50 after 48 hrs by Annexin-V-FITC/PI-staining based flow cytometric analysis (reference value: 96.2%); type: functional
MCF7 [7] = assay: Induction of apoptosis in human MCF7 cells assessed as early apoptotic cells at 1 fold IC50 after 48 hrs by Annexin-V-FITC/PI-staining based flow cytometric analysis (reference value: 1.59%); type: functional
MCF7 [8] = assay: Induction of apoptosis in human MCF7 cells assessed as late apoptotic cells at 1 fold IC50 after 48 hrs by Annexin-V-FITC/PI-staining based flow cytometric analysis (reference value: 0.556%); type: functional
MCF7 [9] = assay: Induction of apoptosis in human MCF7 cells assessed as necrotic cells at 1 fold IC50 after 48 hrs by Annexin-V-FITC/PI-staining based flow cytometric analysis (reference value: 1.61%); type: functional
MCF7 [10] = assay: Induction of apoptosis in human MCF7 cells assessed as viable cells at 2 fold IC50 after 48 hrs by Annexin-V-FITC/PI-staining based flow cytometric analysis (reference value: 96.2%); type: functional
MCF7 [11] = assay: Induction of apoptosis in human MCF7 cells assessed as early apoptotic cells at 2 fold IC50 after 48 hrs by Annexin-V-FITC/PI-staining based flow cytometric analysis (reference value: 1.59%); type: functional
MCF7 [12] = assay: Induction of apoptosis in human MCF7 cells assessed as late apoptotic cells at 2 fold IC50 after 48 hrs by Annexin-V-FITC/PI-staining based flow cytometric analysis (reference value: 0.556%); type: functional
MCF7 [13] = assay: Induction of apoptosis in human MCF7 cells assessed as necrotic cells at 2 fold IC50 after 48 hrs by Annexin-V-FITC/PI-staining based flow cytometric analysis (reference value: 1.61%); type: functional
MCF7 [14] = assay: Induction of apoptosis in human MCF7 cells assessed as viable cells at 3 fold IC50 after 48 hrs by Annexin-V-FITC/PI-staining based flow cytometric analysis (reference value: 96.2%); type: functional
MCF7 [15] = assay: Induction of apoptosis in human MCF7 cells assessed as early apoptotic cells at 3 fold IC50 after 48 hrs by Annexin-V-FITC/PI-staining based flow cytometric analysis (reference value: 1.59%); type: functional
MCF7 [16] = assay: Induction of apoptosis in human MCF7 cells assessed as late apoptotic cells at 3 fold IC50 after 48 hrs by Annexin-V-FITC/PI-staining based flow cytometric analysis (reference value: 0.556%); type: functional
MCF7 [17] = assay: Induction of apoptosis in human MCF7 cells assessed as necrotic cells at 3 fold IC50 after 48 hrs by Annexin-V-FITC/PI-staining based flow cytometric analysis (reference value: 1.61%); type: functional
MCF7 [18] = assay: Inhibition of cell migration in human MCF7 cells measured after 24 hrs by phase-contrast microscopy based wound healing assay; type: functional; conditions: dose 25-50 nM
4T1 = assay: Antitumor activity against mouse 4T1 cells xenografted in BALB/c mouse assessed as reduction in tumor weight at 2.5 mg/kg, iv administered every 2 days for 2 weeks; type: functional; design: scale not given: the % may be the effect or the level left
[19] = Toxicity in BALB/c nude mouse xenografted with mouse 4T1 cells assessed as body weight loss at 2.5 mg/kg, iv administered every 2 days for 2 weeks relative to control; type: organism-based; conditions: in vivo, 336 h
[20] = Toxicity in BALB/c nude mouse xenografted with human MCF7 cells assessed as effect on heart at 2.5 mg/kg, iv administered every 2 days for 2 weeks; type: organism-based; conditions: in vivo, 336 h
[21] = Toxicity in BALB/c nude mouse xenografted with human MCF7 cells assessed as effect on liver at 2.5 mg/kg, iv administered every 2 days for 2 weeks; type: organism-based; conditions: in vivo, 336 h
[22] = Toxicity in BALB/c nude mouse xenografted with human MCF7 cells assessed as effect on spleen at 2.5 mg/kg, iv administered every 2 days for 2 weeks; type: organism-based; conditions: in vivo, 336 h
[23] = Toxicity in BALB/c nude mouse xenografted with human MCF7 cells assessed as effect on kidney at 2.5 mg/kg, iv administered every 2 days for 2 weeks; type: organism-based; conditions: in vivo, 336 h
Tubulin (Homo sapiens) [24] = target: T1, Tubulin (Homo sapiens); assay: Binding affinity to colchicine binding site of tubulin (unknown origin) assessed as decrease in fluorescence of colchicine-tubulin complex by fluorescence based assay; type: protein-complex assay
[25] = Toxicity in BALB/c nude mouse xenografted with human MCF7 cells assessed as effect on spleen at 10 mg/kg, iv administered every 2 days for 2 weeks; type: organism-based; conditions: in vivo, 336 h

- IC50 (MCF7 [1]): 740 nM
- IC50 (SGC-7901): 79 nM
- IC50 (A549): 8940 nM
Compound: COc1cc(-n2cnc3ccc(-c4ccc([N+](=O)[O-])cc4)cc32)cc(OC)c1OC

- IC50 (MCF7 [1]): 2290 nM
- IC50 (SGC-7901): 290 nM
- IC50 (A549): 3060 nM
Compound: COc1cc(-n2cnc3ccc(-c4ccccc4)cc32)cc(OC)c1OC

- IC50 (MCF7 [1]): 210 nM
- IC50 (SGC-7901): 82 nM
- IC50 (A549): > 10000 nM
Compound: COc1ccc(-c2ccc3ncn(-c4cc(OC)c(OC)c(OC)c4)c3c2)cc1

- IC50 (MCF7 [1]): 360 nM
- IC50 (SGC-7901): 1240 nM
- IC50 (A549): 3820 nM
Compound: COc1cc(-n2cnc3ccc(-c4cccc(C)c4)cc32)cc(OC)c1OC

- IC50 (MCF7 [1]): 1320 nM
- IC50 (SGC-7901): 1270 nM
- IC50 (A549): > 10000 nM
Compound: COc1cc(-n2cnc3ccc(-c4ccc(Cl)cc4)cc32)cc(OC)c1OC

- IC50 (MCF7 [1]): 1610 nM
- IC50 (SGC-7901): 3310 nM
- IC50 (A549): 3180 nM
Compound: COc1cccc(-c2ccc3ncn(-c4cc(OC)c(OC)c(OC)c4)c3c2)c1

- IC50 (MCF7 [1]): 3120 nM
- IC50 (SGC-7901): 1490 nM
- IC50 (A549): 7050 nM
Compound: COc1cc(-n2cnc3ccc(-c4cccc(Cl)c4)cc32)cc(OC)c1OC

- IC50 (MCF7 [1]): > 10000 nM
- IC50 (SGC-7901): > 10000 nM
- IC50 (A549): > 10000 nM
Compound: COc1cc(-c2ccc3ncn(-c4cc(OC)c(OC)c(OC)c4)c3c2)cc(OC)c1OC

- IC50 (MCF7 [1]): 180 nM
- IC50 (SGC-7901): 21 nM
- IC50 (A549): 640 nM
Compound: COc1cc(-n2cnc3ccc(-c4cccc(N)c4)cc32)cc(OC)c1OC

- IC50 (MCF7 [1]): 4160 nM
- IC50 (SGC-7901): > 10000 nM
- IC50 (A549): 5090 nM
Compound: COc1cc(-n2cnc3ccc(-c4ccc(O)cc4)cc32)cc(OC)c1OC

- IC50 (MCF7 [1]): 1710 nM
- IC50 (SGC-7901): 2970 nM
- IC50 (A549): 8550 nM
Compound: CCOc1ccc(-c2ccc3ncn(-c4cc(OC)c(OC)c(OC)c4)c3c2)cc1

- IC50 (MCF7 [1]): 4560 nM
- IC50 (SGC-7901): 380 nM
- IC50 (A549): 5410 nM
Compound: COc1cc(-n2cnc3ccc(-c4cccc([N+](=O)[O-])c4)cc32)cc(OC)c1OC

- IC50 (MCF7 [1]): 5420 nM
- IC50 (SGC-7901): > 10000 nM
- IC50 (A549): > 10000 nM
Compound: COc1cc(-n2cnc3ccc(-c4ccc(Cl)cc4Cl)cc32)cc(OC)c1OC

- inhibition (Tubulin (Homo sapiens) [2]): Active
- IC50 (MCF7 [1]): 37 nM
- IC50 (SGC-7901): 44 nM
- IC50 (A549): 200 nM
- inhibition (Sus scrofa): Dose-Dependent Effect
- Activity (Tubulin (Homo sapiens) [24]): Active
Compound: COc1ccc(-c2ccc3ncn(-c4cc(OC)c(OC)c(OC)c4)c3c2)cc1O
- Activity (MCF7 [3]): 15%
- Activity (MCF7 [4]): 22%
- Activity (MCF7 [5]): 72%
- Activity (MCF7 [6]): 75.1%
- Activity (MCF7 [7]): 16%
- Activity (MCF7 [8]): 4.4%
- Activity (MCF7 [9]): 1.51%
- Activity (MCF7 [10]): 52.8%
- Activity (MCF7 [11]): 35.6%
- Activity (MCF7 [12]): 10.4%
- Activity (MCF7 [13]): 0.96%
- Activity (MCF7 [14]): 50.6%
- Activity (MCF7 [15]): 37.6%
- Activity (MCF7 [16]): 11.4%
- Activity (MCF7 [17]): 0.271%
- inhibition (MCF7 [18]): Dose-Dependent Effect
- Activity (4T1): 52%
- Activity [19]: Non-Toxic
- Activity [20]: Non-Toxic
- Activity [21]: Non-Toxic
- Activity [22]: Non-Toxic
- Activity [23]: Non-Toxic

- IC50 (MCF7 [1]): 1770 nM
- IC50 (SGC-7901): 3500 nM
- IC50 (A549): 6740 nM
Compound: COc1cc(-n2cnc3ccc(-c4ccc(F)cc4)cc32)cc(OC)c1OC

- IC50 (MCF7 [1]): 110 nM
- IC50 (SGC-7901): 200 nM
- IC50 (A549): 1940 nM
Compound: COc1cc(-n2cnc3ccc(-c4ccc(C)cc4)cc32)cc(OC)c1OC

Compound: COc1cc2c(c(OC)c1OC)-c1ccc(OC)c(=O)cc1[C@@H](NC(C)=O)CC2 [COLCHICINE]
- IC50 (MCF7 [1]): 18 nM
- IC50 (SGC-7901): 7 nM
- IC50 (A549): 95 nM

- IC50 (MCF7 [1]): 760 nM
- IC50 (SGC-7901): 890 nM
- IC50 (A549): 3390 nM
Compound: COc1cc(-n2cnc3ccc(-c4ccc(C(F)(F)F)cc4)cc32)cc(OC)c1OC

- IC50 (MCF7 [1]): 1750 nM
- IC50 (SGC-7901): 5050 nM
- IC50 (A549): 4320 nM
Compound: COc1ccccc1-c1ccc2ncn(-c3cc(OC)c(OC)c(OC)c3)c2c1

- IC50 (MCF7 [1]): 350 nM
- IC50 (SGC-7901): 53 nM
- IC50 (A549): 250 nM
Compound: COc1cc(-n2cnc3ccc(-c4cccc(O)c4)cc32)cc(OC)c1OC

- IC50 (MCF7 [1]): 520 nM
- IC50 (SGC-7901): 430 nM
- IC50 (A549): 1430 nM
Compound: COc1ccc(-c2ccc3ncn(-c4cc(OC)c(OC)c(OC)c4)c3c2)cc1F

- IC50 (MCF7 [1]): > 10000 nM
- IC50 (SGC-7901): > 10000 nM
- IC50 (A549): > 10000 nM
Compound: COc1cc(-n2cnc3ccc(-c4ccccc4Cl)cc32)cc(OC)c1OC

- IC50 (MCF7 [1]): 56 nM
- IC50 (SGC-7901): 5650 nM
- IC50 (A549): > 10000 nM
Compound: COc1cc(-n2cnc3ccc(-c4ccc(C)cc4F)cc32)cc(OC)c1OC

Compound: Nc1ccn([C@@H]2O[C@H](CO)[C@@H](O)C2(F)F)c(=O)n1 [GEMCITABINE]
- Activity [25]: Toxic

- IC50 (MCF7 [1]): 6420 nM
- IC50 (SGC-7901): 6590 nM
- IC50 (A549): 7940 nM
Compound: COc1cc(-n2cnc3ccc(-c4cc(F)ccc4F)cc32)cc(OC)c1OC

- IC50 (MCF7 [1]): 1540 nM
- IC50 (SGC-7901): 450 nM
- IC50 (A549): 2510 nM
Compound: COc1cc(-n2cnc3ccc(-c4ccc(C(C)=O)cc4)cc32)cc(OC)c1OC

- IC50 (MCF7 [1]): 2350 nM
- IC50 (SGC-7901): 2490 nM
- IC50 (A549): 5270 nM
Compound: COc1cc(-n2cnc3ccc(-c4cccc(F)c4)cc32)cc(OC)c1OC

- IC50 (MCF7 [1]): 2150 nM
- IC50 (SGC-7901): 3040 nM
- IC50 (A549): 9250 nM
Compound: COc1cc(-n2cnc3ccc(-c4cccc(C)c4C)cc32)cc(OC)c1OC
